Measurements: patent US5405849A, “Angiotensin II receptor blocking 2,3,6 substituted quinazolinones” (American Cyanamid Company, priority 1993, dated 1995)
Where a name gives a salt, the structure may show the parent alone.

System: angiotensin II (AII) vasopressor response
Assay: AII challenge: antagonism of the vasopressor response of angiotensin II in conscious Okamoto-Aoki SHR
Assay type: in vivo, rat (Okamoto-Aoki SHR)
Conditions: for inhibition in vivo at 1 mg/kg / inhibition in vivo at 2 mg/kg: Rattus norvegicus
Excerpt: Conscious Male Okamoto-Aoki SHR, 16-20 weeks old, weighing approximately 330 g are purchased from Charles River Labs (Wilmington, Mass.). Conscious rats are restrained in a supine position with elastic tape. The area at the base of the tail is locally anesthetized by subcutaneous infiltration with 2% procaine. The ventral caudal artery and vein are isolated, and a cannula made of polyethylene (PE) 10-20 tubing (fused together by heat) is passed into the lower abdominal aorta and vena cava, respectively. The cannula is secured, heparinized (1,000 I.U./ml), sealed and the wound is closed. The animals are placed in plastic restraining cages in an upright position. The cannula is attached to a Statham P23Db pressure transducer, and pulsatile blood pressure is recorded to 10-15 minutes with a Gould Brush recorder.
Angiotensin II (human sequence, Sigma Chem. Co., St. Louis, Mo.) of 0.05 and 0.1 ug/kg i.v. is injected into all rats (predosing response). Then a test compound, vehicle or a known angiotensin II antagonist is administered i.v., i.p. or orally to each set of rats. […] The vasopressor response of angiotensin II is measured for the increase in systolic blood pressure in mmHg. The percentage of antagonism or blockade of the vasopressor response of angiotensin II by a compound is calculated using the vasopressor response (increase in systolic blood pressure) of angiotensin II of each rat predosing the compound as 100%.

## CCCCc1nc2ccc(C(C)(C)O)cc2c(=O)n1Cc1ccc(-c2ccccc2-c2nnn[nH]2)cc1 [Example 61, 2-Butyl-6-(1-hydroxy-1-methylethyl)-3-[[2'-(1H-(tetrazol-5-yl) [1,1'-biphenyl]-4-yl]methyl]-4(3H)-quinazolinone monosodium salt]
1 mg/kg iv, AII .05 ug/kg, 30 min
  Response change (systolic BP increase to AII): 40 mmHg
1 mg/kg iv, AII .05 ug/kg, 45 min
  Response change (systolic BP increase to AII): 25 mmHg
1 mg/kg iv, AII .05 ug/kg, 90 min
  Response change (systolic BP increase to AII): 45 mmHg
1 mg/kg iv, AII .1 ug/kg, 30 min
  Response change (systolic BP increase to AII): 55 mmHg
1 mg/kg iv, AII .1 ug/kg, 45 min
  Response change (systolic BP increase to AII): 40 mmHg
1 mg/kg iv, AII .1 ug/kg, 90 min
  Response change (systolic BP increase to AII): 65 mmHg
2 mg/kg iv, AII .025 ug/kg, 30 min
  Response change (systolic BP increase to AII): 0 mmHg
2 mg/kg iv, AII .025 ug/kg, 90 min
  Response change (systolic BP increase to AII): 0 mmHg
2 mg/kg iv, AII .025 ug/kg, 150 min
  Response change (systolic BP increase to AII): 0 mmHg
2 mg/kg iv, AII .05 ug/kg, 30 min
  Response change (systolic BP increase to AII): 0 mmHg
2 mg/kg iv, AII .05 ug/kg, 90 min
  Response change (systolic BP increase to AII): 0 mmHg
2 mg/kg iv, AII .05 ug/kg, 120 min
  Response change (systolic BP increase to AII): 25 mmHg
2 mg/kg iv, AII .05 ug/kg, 180 min
  Response change (systolic BP increase to AII): 40 mmHg
2 mg/kg iv, AII .1 ug/kg, 30 min
  Response change (systolic BP increase to AII): 0 mmHg
2 mg/kg iv, AII .1 ug/kg, 90 min
  Response change (systolic BP increase to AII): 0 mmHg
2 mg/kg iv, AII .1 ug/kg, 120 min
  Response change (systolic BP increase to AII): 50 mmHg
2 mg/kg iv, AII .1 ug/kg, 180 min
  Response change (systolic BP increase to AII): 45 mmHg
0.5 h, 1 mg/kg iv, AII .05 ug/kg, 30 min
  inhibition in vivo at 1 mg/kg: 20%
0.75 h, 1 mg/kg iv, AII .05 ug/kg, 45 min
  inhibition in vivo at 1 mg/kg: 50%
2.5 h, 2 mg/kg iv, AII .05 ug/kg, 150 min
  inhibition in vivo at 2 mg/kg: 30%
iv, 0.5 h, 1 mg/kg iv, AII .1 ug/kg, 30 min
  inhibition in vivo at 1 mg/kg: 8%
iv, 0.5 h, 2 mg/kg iv, AII .025 ug/kg, 30 min
  inhibition in vivo at 2 mg/kg: 100%
iv, 0.5 h, 2 mg/kg iv, AII .05 ug/kg, 30 min
  inhibition in vivo at 2 mg/kg: 100%
iv, 0.5 h, 2 mg/kg iv, AII .1 ug/kg, 30 min
  inhibition in vivo at 2 mg/kg: 100%
iv, 0.75 h, 1 mg/kg iv, AII .1 ug/kg, 45 min
  inhibition in vivo at 1 mg/kg: 33%
iv, 1.5 h, 1 mg/kg iv, AII .05 ug/kg, 90 min
  inhibition in vivo at 1 mg/kg: 10%
iv, 1.5 h, 1 mg/kg iv, AII .1 ug/kg, 90 min
  inhibition in vivo at 1 mg/kg: 8%
iv, 1.5 h, 2 mg/kg iv, AII .025 ug/kg, 90 min
  inhibition in vivo at 2 mg/kg: 100%
iv, 1.5 h, 2 mg/kg iv, AII .05 ug/kg, 90 min
  inhibition in vivo at 2 mg/kg: 100%
iv, 1.5 h, 2 mg/kg iv, AII .1 ug/kg, 90 min
  inhibition in vivo at 2 mg/kg: 100%
iv, 2 h, 2 mg/kg iv, AII .05 ug/kg, 120 min
  inhibition in vivo at 2 mg/kg: 50%
iv, 2 h, 2 mg/kg iv, AII .1 ug/kg, 120 min
  inhibition in vivo at 2 mg/kg: 17%
iv, 2.5 h, 2 mg/kg iv, AII .025 ug/kg, 150 min
  inhibition in vivo at 2 mg/kg: 100%
iv, 2.5 h, 2 mg/kg iv, AII .05 ug/kg, 150 min
  inhibition in vivo at 2 mg/kg: 100%
iv, 3 h, 2 mg/kg iv, AII .05 ug/kg, 180 min
  inhibition in vivo at 2 mg/kg: 20%
iv, 3 h, 2 mg/kg iv, AII .1 ug/kg, 180 min
  inhibition in vivo at 2 mg/kg: 25%
